Measured values published in patent US9233989B2, “Sila analogs of oxazolidinone derivatives and synthesis thereof” (Council of Scientific & Industrial Research, priority 2011, dated 2016).
Values after ≈ are worked out from the molar mass of the structure shown.

Experiments:
[1] = system: S.aureus ATCC Newman 25904; assay: MIC by microbroth dilution method; format: cell-based
S.aureus2 (PVL + ve) = format: cell-based, S. aureus
S.aureus ATCC 29213 = assay: MIC by microbroth dilution method; format: cell-based
MRSA 0-2657 = assay: MIC by microbroth dilution method; format: cell-based, S. aureus
MRSA 252 BAA 1720 = assay: MIC by microbroth dilution method; format: cell-based, S. aureus
E.faecium ATCC 49224 = assay: MIC by microbroth dilution method; format: cell-based
E.faecalis ATCC 29212 = assay: MIC by microbroth dilution method; format: cell-based
MRSA DB 00026 = assay: MIC by microbroth dilution method; format: cell-based, S. aureus
E.faecium 134 VRE = assay: MIC by microbroth dilution method; format: cell-based
E.faecium 06076 VRE = assay: MIC by microbroth dilution method; format: cell-based
[2] = system: E.faecalis ATCC 51299(VRE&HLAR); assay: MIC by microbroth dilution method; format: cell-based
E.faecium 6A VRE = assay: MIC by microbroth dilution method; format: cell-based
E.faecalis SP 346 VRE = assay: MIC by microbroth dilution method; format: cell-based
MRSE ATCC 35983 = assay: MIC by microbroth dilution method; format: cell-based, S. epidermidis
S.epidermidis ATCC 14990 = assay: MIC by microbroth dilution method; format: cell-based
MRSE ATCC 35984 = assay: MIC by microbroth dilution method; format: cell-based, S. epidermidis
[3] = system: S.aureus 13709 LNZ mutant; format: cell-based
E.faecalis ATCC 19433 = assay: MIC by microbroth dilution method; format: cell-based
MRSA 562 = assay: MIC by microbroth dilution method; format: cell-based, S. aureus
[4] = system: S.aureus ATCC 700699 Mu50; assay: MIC by microbroth dilution method; format: cell-based
E.faecium ATCC 19434 = assay: MIC by microbroth dilution method; format: cell-based
[5] = system: S.aureus ATCC 49775 PVL + ve; format: cell-based
MRSA ATCC 43300 = assay: MIC by microbroth dilution method; format: cell-based, S. aureus
[6] = system: S.aureus ATCC 13709 Smith; assay: MIC by microbroth dilution method; format: cell-based
E.coli 7632 = assay: MIC by microbroth dilution method; format: cell-based
MRSA ATCC BAA 39 = assay: MIC by microbroth dilution method; format: cell-based, S. aureus
S.epidermis St 358 = assay: MIC by microbroth dilution method; format: cell-based, S. epidermidis
E.faecium ATCC 35667 = assay: MIC by microbroth dilution method; format: cell-based
[7] = system: Mycobacterium tuberculosis H37Rv; assay: Anti-TB activity, colorimetric resazurin microtiter assay; format: cell-based; conditions: for MIC: Mycobacterium tuberculosis, H37RV, read-out: MIC, Minimum Inhibitory Concentration (90%)
E.faecium ATCC 3567 = assay: MIC by microbroth dilution method; format: cell-based
S.epidermidis ATCC 12228 = assay: MIC by microbroth dilution method; format: cell-based
S.aureus DB00026 = assay: MIC by microbroth dilution method; format: cell-based

SMILES | MIC [1] [µg/mL] | MIC (S.aureus2 (PVL + ve)) [µg/mL] | MIC (S.aureus ATCC 29213) [µg/mL] | MIC (MRSA 0-2657) | MIC (MRSA 252 BAA 1720) [µg/mL] | MIC (E.faecium ATCC 49224) [µg/mL] | MIC (E.faecalis ATCC 29212) [µg/mL] | MIC (MRSA DB 00026) [µg/mL] | MIC (E.faecium 134 VRE) [µg/mL] | MIC (E.faecium 06076 VRE) [µg/mL] | MIC [2] [µg/mL] | MIC (E.faecium 6A VRE) [µg/mL] | MIC (E.faecalis SP 346 VRE) | MIC (MRSE ATCC 35983) [µg/mL] | MIC (S.epidermidis ATCC 14990) [µg/mL] | MIC (MRSE ATCC 35984) [µg/mL] | MIC [3] | MIC (E.faecalis ATCC 19433) [µg/mL] | MIC (MRSA 562) [µg/mL] | MIC [4] [µg/mL] | also measured
C[Si]1(c2ccccc2)CCN(c2c(F)cc(N3C[C@H](CO)OC3=O)cc2F)CC1 [NDS-10071, (R)-3-(3,5-difluoro-4-(4-methyl-4-phenyl-1,4-azasilinan-1-yl)phenyl)-5-(hydroxylmethyl)oxazolidin-2-one] | 16 (≈ 38.2 µM) | 32 (≈ 76.5 µM) | > 32 | 8(ppt) | 32 (≈ 76.5 µM) | 32 (≈ 76.5 µM) | 8 (≈ 19.1 µM) | 16 (≈ 38.2 µM) | 8 (≈ 19.1 µM) | 32 (≈ 76.5 µM) | 32 (≈ 76.5 µM) | 32 (≈ 76.5 µM) | 16(ppt) | 16 (≈ 38.2 µM) | 16 (≈ 38.2 µM) | 16 (≈ 38.2 µM) | 16(ppt) | 16 (≈ 38.2 µM) | 32 (≈ 76.5 µM) | 32 (≈ 76.5 µM) | MIC (E.faecium ATCC 19434): 32 µg/mL (≈ 76.5 µM); MIC [5]: 16(ppt); MIC (MRSA ATCC 43300): > 32 µg/mL; MIC [6]: 32 µg/mL (≈ 76.5 µM); MIC (E.coli 7632): 16 µg/mL (≈ 38.2 µM); MIC (MRSA ATCC BAA 39): 32 µg/mL (≈ 76.5 µM); MIC (S.epidermis St 358): 16 µg/mL (≈ 38.2 µM); MIC (E.faecium ATCC 35667): 16 µg/mL (≈ 38.2 µM); MIC [7]: 50 µg/mL (≈ 119 µM); MIC (E.faecium ATCC 3567): > 32 µg/mL; melting point: 105 to 107 °C; MIC (S.epidermidis ATCC 12228): > 32 µg/mL; MIC (S.aureus DB00026): 32 µg/mL (≈ 76.5 µM)
CC(=O)NC[C@H]1CN(c2ccc(N3CC[Si](C)(C)CC3)c(F)c2)C(=O)O1 [NDS-10024, (S)—N-((3-(4-(4,4-dimethyl-1,4-azasilinan-1-yl)-3-fluorophenyl)-2-oxooxazolidin-5-yl)methyl)acetamide] | 16 (≈ 42.2 µM) | 16 (≈ 42.2 µM) | 16 (≈ 42.2 µM) | 8 µg/mL (≈ 21.1 µM) | 16 (≈ 42.2 µM) | 8 (≈ 21.1 µM) | 16 (≈ 42.2 µM) | 16 (≈ 42.2 µM) | 16 (≈ 42.2 µM) | 16 (≈ 42.2 µM) | 16 (≈ 42.2 µM) | 16 (≈ 42.2 µM) | 16 µg/mL (≈ 42.2 µM) | 8 (≈ 21.1 µM) | 8 (≈ 21.1 µM) | 8 (≈ 21.1 µM) | > 16 µg/mL | 16 (≈ 42.2 µM) | 16 (≈ 42.2 µM) | 8 (≈ 21.1 µM) | MIC (E.faecium ATCC 19434): 16 µg/mL (≈ 42.2 µM); MIC [5]: 16 µg/mL (≈ 42.2 µM); MIC (MRSA ATCC 43300): 16 µg/mL (≈ 42.2 µM); MIC [6]: 16 µg/mL (≈ 42.2 µM); MIC (E.coli 7632): > 32 µg/mL; MIC (MRSA ATCC BAA 39): 16 µg/mL (≈ 42.2 µM); MIC (S.epidermis St 358): 8 µg/mL (≈ 21.1 µM); MIC (E.faecium ATCC 35667): 8 µg/mL (≈ 21.1 µM); anti-tubercular activity (in words) ([7]; Mycobacterium tuberculosis H37Rv): good anti-tubercular activity; MIC [7]: 6.25 µg/mL (≈ 16.5 µM); MIC (E.faecium ATCC 3567): 16 µg/mL (≈ 42.2 µM); MIC (S.epidermidis ATCC 12228): 8 µg/mL (≈ 21.1 µM); MIC (S.aureus DB00026): 16 µg/mL (≈ 42.2 µM)
C[Si]1(C)CCN(c2ccc(N3C[C@H](CO)OC3=O)cc2F)CC1 [NDS-10059, (R)-3-(4-(4,4-dimethyl-1,4-azasilinan-1-yl)-3-fluorophenyl)-5-(hydroxymethyl)oxazolidin-2-one] | > 32 | > 32 | > 32 | 32 µg/mL (≈ 94.5 µM) | > 32 | > 32 | 32 (≈ 94.5 µM) | > 32 | 32 (≈ 94.5 µM) | > 32 | 32 (≈ 94.5 µM) | > 32 | 32 µg/mL (≈ 94.5 µM) | > 32 | 32 (≈ 94.5 µM) | 32 (≈ 94.5 µM) | > 32 µg/mL | > 32 | > 32 | > 32 | MIC (E.faecium ATCC 19434): 32 µg/mL (≈ 94.5 µM); MIC [5]: 32 µg/mL (≈ 94.5 µM); MIC (MRSA ATCC 43300): > 32 µg/mL; MIC [6]: > 32 µg/mL; MIC (E.coli 7632): 32 µg/mL (≈ 94.5 µM); MIC (MRSA ATCC BAA 39): > 32 µg/mL; MIC (S.epidermis St 358): 32 µg/mL (≈ 94.5 µM); MIC (E.faecium ATCC 35667): > 32 µg/mL; MIC [7]: 100 µg/mL (≈ 295 µM); MIC (E.faecium ATCC 3567): > 32 µg/mL; MIC (S.epidermidis ATCC 12228): > 32 µg/mL; MIC (S.aureus DB00026): > 32 µg/mL
C[Si]1(C)CCN(c2c(F)cc(N3C[C@H](CO)OC3=O)cc2F)CC1 [NDS-10052, (R)-3-(4-(4,4-dimethyl-1,4-azasilinan-1-yl)-3,5-difluorophenyl)-5-(hydroxymethyl)oxazolidin-2-one] | > 32 | > 32 | > 32 | > 32 µg/mL | > 32 | 8 (≈ 22.4 µM) | > 32 | > 32 | > 32 | > 32 | > 32 | 8 (≈ 22.4 µM) | > 32 µg/mL | > 32 | 16 (≈ 44.9 µM) | 32 (≈ 89.8 µM) | > 32 µg/mL | > 32 | 16 (≈ 44.9 µM) | 8 (≈ 22.4 µM) | MIC (E.faecium ATCC 19434): 16 µg/mL (≈ 44.9 µM); MIC [5]: > 32 µg/mL; MIC (MRSA ATCC 43300): > 32 µg/mL; MIC [6]: > 32 µg/mL; MIC (E.coli 7632): > 32 µg/mL; MIC (MRSA ATCC BAA 39): 16 µg/mL (≈ 44.9 µM); MIC (S.epidermis St 358): > 32 µg/mL; MIC (E.faecium ATCC 35667): 32 µg/mL (≈ 89.8 µM); MIC (E.faecium ATCC 3567): 32 µg/mL (≈ 89.8 µM); melting point: 126 to 128 °C; MIC (S.epidermidis ATCC 12228): > 32 µg/mL; MIC (S.aureus DB00026): 32 µg/mL (≈ 89.8 µM)
